In patent US5441941A, “1,2-dihydroellipticines with activity against CNS specific cancer” (The United States of America as represented by the …, priority 1993, dated 1995):

How the values were obtained:
SK-MEL-28 = experiment: NCI in vitro screen, SRB percent growth, Melanoma
HL-60 (TB) = experiment: NCI in vitro screen, SRB percent growth, Leukemia
UO-31 = experiment: NCI in vitro screen, SRB percent growth, Renal Cancer
A549/ATCC = experiment: NCI in vitro screen, SRB percent growth, Non-Small Cell Lung Cancer
LOX IMVI = experiment: NCI in vitro screen, SRB percent growth, Melanoma
NCI-H23 = experiment: NCI in vitro screen, SRB percent growth, Non-Small Cell Lung Cancer
TK-10 = experiment: NCI in vitro screen, SRB percent growth, Renal Cancer
SW-620 = experiment: cells; settings: Homo sapiens
RPMI-8226 = experiment: cells; settings: Homo sapiens
OVCAR-5 = experiment: NCI in vitro screen, SRB percent growth, Ovarian Cancer
SNB-19 = experiment: NCI in vitro screen, SRB percent growth, CNS Cancer
DLD-1 = experiment: cells; settings: Homo sapiens
EKVX = experiment: cells; settings: Homo sapiens
SNB-78 = experiment: NCI in vitro screen, SRB percent growth, CNS Cancer
DMS 114 = experiment: cells; settings: Homo sapiens
MOLT-4 = experiment: cells; settings: Homo sapiens
OVCAR-3 = experiment: NCI in vitro screen, SRB percent growth, Ovarian Cancer
[1] = Log10 Concentration -4.0, 100 µM
[2] = Log10 Concentration -7.0, 0.1 µM
[3] = SW-620, read-out: Percent Growth
[4] = RPMI-8226, read-out: Percent Growth
[5] = DLD-1, read-out: Percent Growth
[6] = MOLT-4, read-out: Percent Growth

In the case of COc1ccc2[nH]c3c(C)c4c(c(C)c3c2c1)CN(C)C=C4 [Formula VII], the “Percent Growth” value (SK-MEL-28; [1]) is reported as -75%, the “Percent Growth” value (SK-MEL-28; Log10 Concentration -5.0) is reported as 4% and the “Percent Growth” value (SK-MEL-28; Log10 Concentration -6.0, 1 µM) is reported as 91%. The “Percent Growth” value (SK-MEL-28; [2]) was 105%, the “Percent Growth” value (SK-MEL-28; Log10 Concentration -8.0) was 101% and the TGI (SK-MEL-28; PG=0) was 11.3 µM. For the same compound, the GI50 (SK-MEL-28; PG=+50) was 2.95 µM, the CC50 (SK-MEL-28; read-out: LC-50, PG=-50) was 48.6 µM and the “Percent Growth” value (HL-60 (TB); [1]) was -43%. For the same compound, the “Percent Growth” value (HL-60 (TB); Log10 Concentration -5.0) was 93%, the “Percent Growth” value (HL-60 (TB); Log10 Concentration -6.0, 1 µM) was 121% and the “Percent Growth” value (HL-60 (TB); [2]) was 123%. For the same compound, the “Percent Growth” value (HL-60 (TB); Log10 Concentration -8.0) was 118%, the TGI (HL-60 (TB); PG=0) was 48.5 µM and the GI50 (HL-60 (TB); PG=+50) was 20.8 µM. The CC50 (HL-60 (TB); read-out: LC-50, PG=-50) was over 10000 µM, the “Percent Growth” value (UO-31; [1]) was 10% and the “Percent Growth” value (UO-31; Log10 Concentration -5.0) was 83%. The “Percent Growth” value (UO-31; Log10 Concentration -6.0, 1 µM) was 101%, the “Percent Growth” value (UO-31; [2]) was 112% and the “Percent Growth” value (UO-31; Log10 Concentration -8.0) was 119%. It also gave a TGI (UO-31; PG=0) of over 100 µM, a GI50 (UO-31; PG=+50) of 28.4 µM and a CC50 (UO-31; read-out: LC-50, PG=-50) of over 100 µM. For the same compound, the “Percent Growth” value (A549/ATCC; [1]) was -26%, the “Percent Growth” value (A549/ATCC; Log10 Concentration -5.0) was 10% and the “Percent Growth” value (A549/ATCC; Log10 Concentration -6.0, 1 µM) was 51%. The “Percent Growth” value (A549/ATCC; [2]) was 87%, the “Percent Growth” value (A549/ATCC; Log10 Concentration -8.0) was 102% and the TGI (A549/ATCC; PG=0) was 19.2 µM. For the same compound, the GI50 (A549/ATCC; PG=+50) was 1.05 µM, the CC50 (A549/ATCC; read-out: LC-50, PG=-50) was over 100 µM and the “Percent Growth” value (LOX IMVI; [1]) was -19%. For the same compound, the “Percent Growth” value (LOX IMVI; Log10 Concentration -5.0) was 58%, the “Percent Growth” value (LOX IMVI; Log10 Concentration -6.0, 1 µM) was 119% and the “Percent Growth” value (LOX IMVI; Log10 Concentration -8.0) was 129%. It also gave a TGI (LOX IMVI; PG=0) of 56.9 µM, a GI50 (LOX IMVI; PG=+50) of 12.8 µM and a CC50 (LOX IMVI; read-out: LC-50, PG=-50) of over 100 µM. The “Percent Growth” value (NCI-H23; [1]) was -48%, the “Percent Growth” value (NCI-H23; Log10 Concentration -5.0) was -26% and the “Percent Growth” value (NCI-H23; Log10 Concentration -6.0, 1 µM) was 39%. For the same compound, the “Percent Growth” value (NCI-H23; [2]) was 97%, the “Percent Growth” value (NCI-H23; Log10 Concentration -8.0) was 112% and the TGI (NCI-H23; PG=0) was 4.02 µM. For the same compound, the GI50 (NCI-H23; PG=+50) was 0.648 µM, the CC50 (NCI-H23; read-out: LC-50, PG=-50) was over 100 µM and the “Percent Growth” value (TK-10; [1]) was -6%. For the same compound, the “Percent Growth” value (TK-10; Log10 Concentration -5.0) was 64%, the “Percent Growth” value (TK-10; Log10 Concentration -6.0, 1 µM) was 114% and the “Percent Growth” value (TK-10; [2]) was 127%. For the same compound, the “Percent Growth” value (TK-10; Log10 Concentration -8.0) was 120%, the TGI (TK-10; PG=0) was 82.7 µM and the GI50 (TK-10; PG=+50) was 15.9 µM. The CC50 (TK-10; read-out: LC-50, PG=-50) was over 100 µM, the GI50 (SW-620; SW-620) was 1.05 µM and the CC50 (SW-620; SW-620, read-out: LC-50) was over 100 µM. It also gave an activity at 0.01 µM (SW-620; [3]) of 89%, an activity at 0.1 µM (SW-620; [3]) of 77% and an activity at 1 µM (SW-620; [3]) of 51%. It also gave an activity at 10 µM (SW-620; [3]) of 18%, an activity at 100 µM (SW-620; [3]) of -39% and an IC (TGI) (SW-620; SW-620, read-out: TGI) of 20.4 µM. For the same compound, the GI50 (RPMI-8226; RPMI-8226) was 6.31 µM, the CC50 (RPMI-8226; RPMI-8226, read-out: LC-50) was over 100 µM and the activity at 0.01 µM (RPMI-8226; [4]) was 104%. The activity at 0.1 µM (RPMI-8226; [4]) was 101%, the activity at 1 µM (RPMI-8226; [4]) was 99% and the activity at 10 µM (RPMI-8226; [4]) was 38%. For the same compound, the activity at 100 µM (RPMI-8226; [4]) was -38%, the IC (TGI) (RPMI-8226; RPMI-8226, read-out: TGI) was 31.5 µM and the “Percent Growth” value (OVCAR-5; [1]) was -10%. For the same compound, the “Percent Growth” value (OVCAR-5; Log10 Concentration -5.0) was 70%, the “Percent Growth” value (OVCAR-5; Log10 Concentration -6.0, 1 µM) was 119% and the “Percent Growth” value (OVCAR-5; [2]) was 136%. The “Percent Growth” value (OVCAR-5; Log10 Concentration -8.0) was 133%, the TGI (OVCAR-5; PG=0) was 75.5 µM and the GI50 (OVCAR-5; PG=+50) was 17.8 µM. The CC50 (OVCAR-5; read-out: LC-50, PG=-50) was over 100 µM, the “Percent Growth” value (SNB-19; [1]) was 1% and the “Percent Growth” value (SNB-19; Log10 Concentration -5.0) was 0%. The “Percent Growth” value (SNB-19; Log10 Concentration -6.0, 1 µM) was 16%, the “Percent Growth” value (SNB-19; [2]) was 84% and the “Percent Growth” value (SNB-19; Log10 Concentration -8.0) was 95%. It also gave a TGI (SNB-19; PG=0) of over 100 µM, a GI50 (SNB-19; PG=+50) of 0.318 µM and a CC50 (SNB-19; read-out: LC-50, PG=-50) of over 100 µM. For the same compound, the GI50 (DLD-1; DLD-1) was 3.23 µM, the CC50 (DLD-1; DLD-1, read-out: LC-50) was over 100 µM and the activity at 0.01 µM (DLD-1; [5]) was 103%. The activity at 0.1 µM (DLD-1; [5]) was 99%, the activity at 1 µM (DLD-1; [5]) was 75% and the activity at 10 µM (DLD-1; [5]) was 26%. For the same compound, the activity at 100 µM (DLD-1; [5]) was -15%, the IC (TGI) (DLD-1; DLD-1, read-out: TGI) was 42.3 µM and the GI50 (EKVX) was 0.774 µM. For the same compound, the activity at 0.01 µM (EKVX; read-out: Percent Growth) was 114%, the activity at 0.1 µM (EKVX; read-out: Percent Growth) was 108% and the activity at 1 µM (EKVX; read-out: Percent Growth) was 43%. For the same compound, the activity at 10 µM (EKVX; read-out: Percent Growth) was 3%, the activity at 100 µM (EKVX; read-out: Percent Growth) was -11% and the IC (TGI) (EKVX; read-out: TGI) was 16.5 µM. For the same compound, the “Percent Growth” value (SNB-78; [1]) was -26%, the “Percent Growth” value (SNB-78; Log10 Concentration -5.0) was -18% and the “Percent Growth” value (SNB-78; Log10 Concentration -6.0, 1 µM) was 41%. For the same compound, the “Percent Growth” value (SNB-78; [2]) was 98%, the “Percent Growth” value (SNB-78; Log10 Concentration -8.0) was 98% and the TGI (SNB-78; PG=0) was 4.9 µM. The GI50 (SNB-78; PG=+50) was 0.683 µM, the CC50 (SNB-78; read-out: LC-50, PG=-50) was over 100 µM and the GI50 (DMS 114; DMS-114) was 0.183 µM. It also gave an IC (TGI) (DMS 114; DMS-114, read-out: TGI) of 1.7 µM, a GI50 (MOLT-4; MOLT-4) of 0.3 µM and a CC50 (MOLT-4; MOLT-4, read-out: LC-50) of over 100 µM. The activity at 0.01 µM (MOLT-4; [6]) was 110%, the activity at 0.1 µM (MOLT-4; [6]) was 68% and the activity at 1 µM (MOLT-4; [6]) was 30%. For the same compound, the activity at 10 µM (MOLT-4; [6]) was 8%, the activity at 100 µM (MOLT-4; [6]) was -27% and the IC (TGI) (MOLT-4; MOLT-4, read-out: TGI) was 16.7 µM. The “Percent Growth” value (OVCAR-3; [1]) was -31%, the “Percent Growth” value (OVCAR-3; Log10 Concentration -5.0) was 10% and the “Percent Growth” value (OVCAR-3; Log10 Concentration -6.0, 1 µM) was 74%. The “Percent Growth” value (OVCAR-3; [2]) was 91%, the “Percent Growth” value (OVCAR-3; Log10 Concentration -8.0) was 98% and the TGI (OVCAR-3; PG=0) was 17.3 µM. For the same compound, the GI50 (OVCAR-3; PG=+50) was 2.39 µM and the CC50 (OVCAR-3; read-out: LC-50, PG=-50) was over 100 µM.
